Results published in patent US20190343853A1, “METHODS OF TREATING HYPERTENSION” (THERACOS SUB, LLC, priority 2018, published 2019).

Columns and labels:
[1] = test system: subjects with diabetes; assay: Example 1/2: multicenter double-blind placebo-controlled 96 week trial, seated office blood pressure and blood-pressure TEAEs; type: in vivo, human
Method: In a multicenter double-blind placebo-controlled trial, subjects with diabetes were administered Compound 1, 20 mg per day or placebo for 96 weeks. The blood pressure of resting seated subjects was measured at every office visit. Although the study population was not specifically recruited to contain participants with hypertension, a fraction of the population was affected by the disease and the mean baseline systolic blood pressure of the entire study population was 127 mm Hg. The effects of Compound 1 and placebo on systolic and diastolic blood pressure as a function of time are shown in FIG. 5 (systolic) and FIG. 6 (diastolic).
A treatment emergent adverse event (TEAE) is an adverse event that develops during or immediately following the period of exposure to the investigational product in a clinical trial. An adverse event is any event that represents an unfavorable change in the health of the individual that is clinically significant—it may represent a new condition or status or materially worsened pre-existing condition. In the clinical trial of Example 1, hypertension was recorded as a TEAE in 2 subjects that had been administered Compound 1 and in 5 subjects administered placebo. […] One episode of hypotension was observed among subjects administered Compound 1 and none among subjects administered placebo. The lower incidence of hypertensive TEAEs and the single episode of hypotension are consistent with the antihypertensive effect of Compound 1. In addition, the observation of only a single episode of hypotension is notable because the mean systolic blood pressure at baseline was only 127 mm Hg, well below the 140 mm Hg level that demarks a widely adopted standard for the diagnosis of hypertension.

[2] = test system: spontaneously hypertensive rat, stroke prone strain (SHRSP); conditions: previously reported (Zhang 2011); cited from earlier work
[3] = test system: subjects with seated office systolic blood pressure of ≥140 mm Hg and <180 mm Hg; assay: Study THR-1442-C-603A: double-blind placebo-controlled 12 week trial in a hypertensive population not pre-selected for diabetes; type: in vivo, human
Method: A qualified ABPM record contained no fewer than 64 measurements over an approximately 24 h period and a mean SBP≥135 mm Hg.
A total of 678 subjects were randomly assigned to the active arm or to the placebo arm.
The study was conducted in the United States at multiple clinical sites. The randomized population consisted of 409 male and 269 female participants with a mean age ±standard deviation of 58.5±11.74. […] 64.7% were self-declared Caucasian, 29.9% African-American, 1.6% Asian, 0.3% Native American/Native Alaskan, 0.1% Native Hawaiian/Other Pacific Islander, 1.0% Multiracial and 2.2% Other. 8.1% self-declared Hispanic or Latino ethnicity. The study population was obese, having a median body mass index (kg m^−2) of 31.9 and a mean weight of 98.3±35.0 kg. A history of diagnosed diabetes was elicited from 24.3% of the subjects and 18.0% were presently unmedicated for hypertension.
The baseline 24 h average SBP from ABPM was 147.3±9.93 and the DBP was 84.5±9.65. 11.7% of the subjects produced a baseline ABPM SBP≥160 mm Hg.
Following self-administration of investigational product for 12 weeks, subjects underwent ABPM to assess the potential treatment effect. After the first 300 subjects had completed 12 weeks of participation, the mean SBP was 140.90, corresponding to a decrease from baseline in the entire population of 6.4 mm Hg.
A total of 678 subjects were randomized, of whom 5 were excluded for major protocol violations. Of the remaining 673 participants, 307 out of 334 in the bexagliflozin arm and 319 out of 339 in the placebo arm completed the study. The arms were well-balanced in general by demographic characteristics. The population was predominantly male (60.5%) and Caucasian (65.2%) with the remainder by race predominantly of African heritage (29.4%). Participants of Latino ethnicity comprised 8.0% of the total. The mean age was 58.9 years and 24.8% were diabetic. The mean subject was obese with a BMI of 32.6 kg/m^2, and 81% reported at least one prescription for anti-hypertensive medication. ACE inhibitors and ARBs were the most commonly encountered agents. Calcium channel blockers, diuretics and β-blockers were the next most commonly encountered, in that order. The mean seated office blood pressure was 156/91 with a heart rate of 73. The mean ABPM at baseline was 147.5/85.0. Nearly all participants had preserved renal function.

[4] = subjects with systolic blood pressure of 140 mm Hg or above at study entry, 20 mg per day, persisted for duration of trial

OC[C@H]1O[C@@H](c2ccc(Cl)c(Cc3ccc(OCCOC4CC4)cc3)c2)[C@H](O)[C@@H](O)[C@@H]1O [Compound 1, (2S,3R,4R,5S,6R)-2-(4-chloro-3-(4-(2-cyclopropoxyethoxy)benzyl)phenyl)-6-(hydroxymethyl)tetrahydro-2H-pyran-3,4,5-triol]
episodes of hypotension ([1]; 20 mg per day, 96 weeks): One | hypertension recorded as a TEAE ([1]; 20 mg per day, 96 weeks): 2 subjects | hypertensive crisis ([1]; 20 mg per day, 96 weeks): 0 subjects | propensity for producing deleterious reductions in blood pressure ([1]; mean systolic blood pressure at baseline 127 mm Hg): favorably low propensity | reduction in diastolic blood pressure [1, 4]: approximately 7 mm Hg | reduction in systolic blood pressure [1, 4]: approximately 12 mm Hg | effect in SHRSP rat [2]: protective effects | proportion of subjects achieving a seated office DBP≤90 mm Hg ([3]; 20 mg tablets, 12 weeks): 0.65 | proportion of subjects achieving a seated office SBP≤140 mm Hg ([3]; 20 mg tablets, 12 weeks): 0.38 | placebo-adjusted change in seated office SBP from baseline ([3]; 20 mg tablets, 12 weeks, 95% confidence interval −6.83, −2.42, p<0.0001): −4.63 mm Hg | placebo-adjusted change in seated office DBP from baseline ([3]; 20 mg tablets, week 12, 95% CI −3.70, −0.91, p=0.0011): −2.31 mm Hg | anti-hypertensive effect over the 24 h ABPM data collection period (hourly change in blood pressure) ([3]; ABPM): did not show significant waning | placebo-adjusted reduction in ambulatory mean SBP from baseline to week 12 ([3]; ABPM, p=0.0025): 2.72 mm Hg | adverse events by percentage among participants ([3]; active arm, 12 weeks): 41.9% | adverse events leading to subject withdrawal or treatment discontinuation ([3]; active arm, 12 weeks): 1.8% | serious adverse events ([3]; active versus placebo arm): balanced between the arms | treatment effect by ABPM SBP measurement ([3]; subgroup: concomitant diuretic use, p=0.0021): −5.60 mm Hg | treatment effect by ABPM SBP measurement ([3]; subgroup: concomitant β-blocker use, p=0.0012): −6.26 mm Hg | treatment effect by ABPM SBP measurement ([3]; subgroup: history of diabetes, p=0.0023): −6.07 mm Hg | treatment effect by ABPM SBP measurement ([3]; subgroup: participants with stage 3 CKD, p=0.0571): −7.53 mm Hg | treatment effect by ABPM SBP measurement ([3]; subgroup: use of 3 or more anti-hypertensive medications, p=0.0071): −5.55 mm Hg | odds ratio for achieving seated office DBP≤90 mm Hg ([3]; versus placebo arm, 95% CI 1.13, 2.35, p=0.0094): 1.63 | odds ratio for achieving seated office SBP≤140 mm Hg ([3]; versus placebo arm, 95% CI 1.32, 2.62, p=0.0004): 1.86
